Measured values published in BindingDB's records for doi:10.1021/jm400638v (The University of Queensland, 2013).
Where a SMILES comes first, the peptide text is derived from it. The star is where a group is joined. Palmitoyl = CCCCCCCCCCCCCCCC(=O)*

Assay: Agonist activity at […] in human platelets by platelet aggregation assay in presence of SFLLRN

EC50: 8 µM
Compound: CCCCCCCCCCCCCCCC(=O)N[C@@H](CCCN=C(N)N)C(=O)N[C@@H](CS)C(=O)N[C@@H](CC(C)C)C(=O)N[C@@H](CO)C(=O)N[C@@H](CO)C(=O)N[C@@H](CO)C(=O)N[C@@H](C)C(=O)N[C@H](C(=O)N[C@@H](C)C(=O)N[C@@H](CC(N)=O)C(=O)N[C@@H](CCCN=C(N)N)C(=O)N[C@@H](CO)C(=O)N[C@@H](CCCCN)C(=O)N[C@@H](CCCCN)C(=O)N[C@@H](CO)C(=O)N[C@@H](CCCN=C(N)N)C(=O)N[C@@H](CC(C)C)C(=O)N[C@@H](Cc1ccccc1)C(=O)O)C(C)C (Palmitoyl-RCLSSSAVANRSKKSRLF-OH)
